For experiment [1], the system named is HeLa cervical adenocarcinoma. Description: Inhibition of in vitro cell proliferation (14C-thymidine incorporation), HeLa. The experiment is classed as cell-based. The note with it: Homo sapiens, HeLa cells. As for the experimental part: (§1) The ability of a test compound to inhibit the proliferation of cell growth was determined by measuring incorporation of ^14C-labelled thymidine into newly synthesized DNA within the cells. This method was used on American Type Culture Collection (ATCC, Virginia) cell lines derived from carcinomas originating from several tissues such as HeLa cervical adenocarcinoma (ATCC Cat. #CCL-2), HCT-116 colon carcinoma (ATCC Cat. #CCL-247), and A375 malignant melanoma (ATCC Cat. #CRL-1619).
(§2) The carcinoma cells are trypsinized and counted. The cells (3000-8000 count) are added to each well of a 96-well CytoStar tissue culture treated scintillating microplate (Amersham #RPNQ0160) in complete medium (100 μL) and the plate is then incubated in complete medium for 24 hrs at 37° C. in an inert atmosphere containing 5% CO2.
(§3) Test compound (1 μL) in 100% DMSO is added to the plate test-wells with DMSO only added to control-wells. The plate is incubated in complete medium for a second 24 hr period at 37° C. in an atmosphere containing 5% CO2.
(§4) An aliquot of a solution of Methyl ^14C-thymidine (56 mC/mmol) (NEN #NEC568 or Amersham #CFA532) in complete medium (20 uL to provide 0.2 μCi/well) is then added to each well and the plate is incubated for a third 24 hr period at 37° C. in an atmosphere containing 5% CO2.
(§5) The plate contents are then discarded, the plate is washed twice with PBS (200 μL) and then PBS (200 μL) is added to each well. The plate is sealed and the degree of methyl ^14C-thymidine incorporation is quantified on a Packard Top Count.

A further experiment deals with HCT-116 colon carcinoma. Description: Inhibition of in vitro cell proliferation (14C-thymidine incorporation), HCT116. The note with it: Homo sapiens, HCT116 cells. Format: cell-based. The method, then:
as §1, §2, §3, §4, §5
A general note: Incorporation of labelled thymidine or its analogues reports DNA synthesis.

The target in experiment [2] is T1, HER-2 kinase (GST-HIS6-Thrombin fusion, amino acids 679 to 1255 of HER-2) (Homo sapiens, UniProt P04626).
T1 construct: HIS6-Thrombin site (N); purchased Proqinase (Freiburg, Germany)
T1 sequence (P04626 679-1255): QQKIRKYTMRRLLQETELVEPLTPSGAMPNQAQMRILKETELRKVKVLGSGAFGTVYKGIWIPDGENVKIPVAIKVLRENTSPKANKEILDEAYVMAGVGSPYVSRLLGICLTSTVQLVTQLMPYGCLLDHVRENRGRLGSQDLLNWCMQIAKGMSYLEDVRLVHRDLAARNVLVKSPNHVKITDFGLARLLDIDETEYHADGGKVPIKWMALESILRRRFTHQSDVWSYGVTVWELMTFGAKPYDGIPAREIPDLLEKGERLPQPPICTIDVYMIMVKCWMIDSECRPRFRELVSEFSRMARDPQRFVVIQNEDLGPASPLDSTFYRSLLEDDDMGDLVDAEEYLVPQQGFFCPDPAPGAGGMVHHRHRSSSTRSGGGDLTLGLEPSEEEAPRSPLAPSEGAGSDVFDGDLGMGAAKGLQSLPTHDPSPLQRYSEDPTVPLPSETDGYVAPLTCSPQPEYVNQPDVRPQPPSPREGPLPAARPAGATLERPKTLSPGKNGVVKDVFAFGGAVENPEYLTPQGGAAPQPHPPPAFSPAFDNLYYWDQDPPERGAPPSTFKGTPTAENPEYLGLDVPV
The experiment can be described thus: HER-2 Kinase Assay. Format: biochemical. The note with it: for inhibition at 100 µM: test concentration of 100 μM, read-out: HER2 % inhibition; for IC50: read-out: HER2 IC50. The method, then:
The HER-2 kinase used was purified at Proqinase (Freiburg, Germany) from a construct that consisted of a fusion of GST (Glutathione-S-Transferase), HIS6-Thrombin and the nucleotides encoding amino acids 679 to 1255 of HER-2 (Accession Number M11730).
A mixture of a 10× kinase reaction buffer (600 mM Hepes at pH 7.5, 30 mM Magnesium Chloride, 0.03 mM Sodium Vanadate and 500 μg/mL PEG 20,000), DTT (1.2 mM final from a 10 mM stock), ATP (1 μM from a 10 mM stock), biotinylated polyGluTyr (1.5 ng/μL final from stock of 1 μg/μL) prepared by Upstate Biotechnologies, Lake Placid, N.Y.), Manganese Chloride (3 mM final from a 1 M stock), γ-^33P-ATP (10 μCi/μL stock) and water (70 μL/well) was added to each well of a Streptavidin Flashplate (Cat. # SMP103, NEN, Boston, Mass.).
Test compound stock (1 μL) was added to the appropriate wells. Diluted GSTHER2 kinase (6.7 ng/μL diluted into 50 mM Tris-HCl at pH 8.0 and 0.1% bovine serum albumin) (30 μL) was added (total volume of 200 ng/well) to initiate the reactions.
The reaction plates were incubated at 30° C. for 1 hr. The reaction was terminated by aspirating the reaction mixture from the plate wells and washing the wells three times with a 1× PBS stop buffer (300 μL) and 100 mM EDTA. After the final wash, the same stop buffer (200 μL) was again added to the wells. The plates were then sealed and read on the TopCount scintillation counter.
Test compounds were assayed in triplicate at 8 concentrations at one-log dilutions starting at 100 μM. A maximum and minimum signal for the assay was determined on each plate. The percent inhibition of a test compound was calculated according to the formula: […]
(§6) For a series of test concentrations, the IC50 was derived by graphing percent inhibition against the log of the concentrations tested for a given compound.

Experiment [3] addresses T2, EGFR kinase (GST fusion of intracellular portion of EGFR, NM_005228) (Homo sapiens, UniProt P00533).
T2 construct: The intracellular portion of EGFR started at nucleotide 2189 (corresponding to amino acid 667) and ended at the termination codon; made in house; host or cells: Sf9 insect cells (baculovirus)
Description: EGFR Kinase Assay. The experiment is classed as biochemical. The note with it: for inhibition at 2 µM: test concentration of 2 μM.
Source text: The portion was PCR amplified with primers that added the lambda attB sequences to each end, recombined into an entry vector, then into a (GST destination vector (as described in Gateway Technologies Manual by Invitrogen Corporation, Carlsbad, Calif.).
The destination vector was recombined in the DH10BAC strain of bacteria to produce a bacmid. The bacmid was transfected into Sf 9 cells and the supernatant containing the baculovirus was collected. The GSTEGFR protein was purified using large cultures of Sf 9 cells infected with stock virus. After an appropriate period of time, the cells were collected and lysed. The GSTEGFR was then purified from the lysate on Glutathione-Sepharose columns (as described by Amersham Biosciences, Buckinghamshire, United Kingdom).
The free biotin was separated from the biotinylated polyGluTyr on a gel filtration column.
A mixture of a 10× kinase buffer (500 mM Tris at pH 8.0, 100 mM Magnesium Chloride and 1 mM Sodium Vanadate), DTT (1 mM final from 500 mM stock), ATP (5 μM final from […]), biotinylated polyGluTyr (10 μg/μL stock), γ-^33P ATP (10 μCi/μL stock) and water was added to each well (90 μL/well) of a Streptavidin Flashplate (Perkin Elmer, Wellesley, Mass.).
Test compound in 100% DMSO (2 μL) was added to the appropriate wells. Diluted GSTEGFR (1:300 dilution in 50 mM Tris at pH 8.0 and 0.1% bovine serum albumin) (10 μL) was added to the wells to initiate the reactions.
The plates were incubated at 30° C. for 1 hr with shaking, The reacted contents were removed and the plates were sequentially washed three times with a 1×PBS stop buffer (300 μL without Magnesium and Calcium) and 100 mM EDTA. After the final wash, the same stop buffer (200 μL) was added to the wells. The plates were then sealed and read on the TopCount scintillation counter.
Test compounds were assayed in triplicate at 16 concentrations at half-log dilutions starting at 200 μM. A maximum and minimum signal for the assay was determined on each plate. The percent inhibition of a test compound was calculated according to the formula
as §6

For a further experiment, the system named is A375 malignant melanoma. The experiment can be described thus: Inhibition of in vitro cell proliferation (14C-thymidine incorporation), A375. The experiment is classed as cell-based. Particulars: Homo sapiens, A-375, A375 cells. The method, then:
as §1, §2, §3, §4, §5

Experimental findings from patent US20090111810A1, “SUBSTITUTED PYRIMIDINE-5-CARBOXAMIDE AND 5-CARBOXYLIC ESTER KINASE INHIBITORS” (priority 2007, published 2009) are described below.

The term IC50 denotes the concentration at which inhibition is half-maximal. Usually inhibition stands for the percentage by which the read-out fell short of the control.

T2 sequence (P00533 669-1210 limits assumed): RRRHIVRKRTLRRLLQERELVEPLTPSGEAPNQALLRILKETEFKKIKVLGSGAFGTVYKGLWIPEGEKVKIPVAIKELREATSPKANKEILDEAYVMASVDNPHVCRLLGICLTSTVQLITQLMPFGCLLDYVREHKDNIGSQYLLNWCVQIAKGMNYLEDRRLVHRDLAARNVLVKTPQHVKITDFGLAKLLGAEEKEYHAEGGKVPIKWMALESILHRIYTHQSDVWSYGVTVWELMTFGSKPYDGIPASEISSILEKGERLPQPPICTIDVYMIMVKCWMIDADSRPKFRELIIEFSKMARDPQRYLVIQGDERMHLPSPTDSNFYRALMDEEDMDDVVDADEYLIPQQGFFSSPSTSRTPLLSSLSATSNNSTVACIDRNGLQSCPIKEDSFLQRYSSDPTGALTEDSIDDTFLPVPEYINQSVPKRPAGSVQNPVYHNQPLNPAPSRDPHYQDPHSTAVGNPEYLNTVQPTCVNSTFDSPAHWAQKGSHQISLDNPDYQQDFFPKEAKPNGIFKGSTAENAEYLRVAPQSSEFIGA

As to `COCCNC(=O)c1c(N)ncnc1Nc1ccc(OCc2ccccc2)c(Cl)c1` [Cpd 6, 4-amino-6-(4-benzyloxy-3-chloro-phenylamino)-pyrimidine-5-carboxylic acid (2-methoxy-ethyl)-amide], the IC50 (in experiment [1]; in the experiment with HCT-116 colon carcinoma; in the experiment with A375 malignant melanoma) was above 100 µM in each case. In addition, the inhibition at 100 µM in experiment [2] stood at 33%. In experiment [3], the inhibition at 2 µM turned out to be 37%.
Consider `NNC(=O)c1c(N)ncnc1Nc1ccc(OCc2ccccc2)c(Cl)c1` [Cpd 12, 4-amino-6-(4-benzyloxy-3-chloro-phenylamino)-pyrimidine-5-carboxylic acid hydrazide], for which the half-maximal inhibitory concentration (IC50) in experiment [1] turned out to be 3 µM; in the experiment with HCT-116 colon carcinoma, 3.4 µM; in experiment [2], 0.15 µM; with A375 malignant melanoma, 1.7 µM.
For the molecule `Nc1ncnc(Nc2ccc(OCc3ccccc3)c(Cl)c2)c1C(=O)NNC(=O)CCN1CCOCC1` [Cpd 13, 4-amino-6-(4-benzyloxy-3-chloro-phenylamino)-pyrimidine-5-carboxylic acid N′-(3-morpholin-4-yl-propionyl)-hydrazide], the IC50 in experiment [1] is above 100 µM; in the experiment on HCT-116 colon carcinoma, above 100 µM; in experiment [2], 5.7 µM; in experiment [3], 0.62 µM; in the experiment with A375 malignant melanoma, above 100 µM.
`Nc1ncnc(Nc2ccc(OCc3ccccc3)c(Cl)c2)c1C=O` [Cpd 14, 4-amino-6-(4-benzyloxy-3-chloro-phenylamino)-pyrimidine-5-carboxaldehyde]: in experiment [2], the inhibition at 100 µM amounted to 63%.
On to `Nc1ncnc(Nc2ccc(OCc3ccccc3)c(Cl)c2)c1C(=O)OCc1cccc(F)c1` [Cpd 4, 4-amino-6-(4-benzyloxy-3-chloro-phenylamino)-pyrimidine-5-carboxylic acid 3-fluoro-benzyl ester], for which the IC50 (in experiment [1]; in the experiment on HCT-116 colon carcinoma; in the experiment with A375 malignant melanoma) was above 10 µM throughout. In experiment [2], the inhibition at 100 µM stood at 21%. 2 µM produced 34% inhibition in experiment [3].
`Nc1ncnc(Nc2ccc(OCc3ccccc3)c(Cl)c2)c1C(=O)Nc1ccccc1` [Cpd 10, 4-amino-6-(4-benzyloxy-3-chloro-phenylamino)-pyrimidine-5-carboxylic acid phenylamide]: the IC50 (in experiment [1]; in the experiment on HCT-116 colon carcinoma; in the experiment on A375 malignant melanoma) was above 100 µM in each case. Also, the inhibition at 100 µM in experiment [2] is 12%.
As for `Nc1ncnc(Nc2ccc(OCc3ccccc3)c(Cl)c2)c1C(=O)NCCN1CCOCC1` [Cpd 8, 4-amino-6-(4-benzyloxy-3-chloro-phenylamino)-pyrimidine-5-carboxylic acid (2-morpholin-4-yl-ethyl)-amide], the IC50 (in experiment [1]; in the experiment with HCT-116 colon carcinoma; with A375 malignant melanoma) was above 10 µM each time. Also, the inhibition at 100 µM in experiment [2] amounted to 82%. The molecule also showed an inhibition at 2 µM in experiment [3] of 35%.
For `CCN(CC)C(=O)c1c(N)ncnc1Nc1ccc(OCc2ccccc2)c(Cl)c1` [Cpd 5, 4-amino-6-(4-benzyloxy-3-chloro-phenylamino)-pyrimidine-5-carboxylic acid diethylamide], the IC50 (in experiment [1]; in the experiment with HCT-116 colon carcinoma; in the experiment on A375 malignant melanoma) was above 10 µM throughout. Further, in experiment [2], the inhibition at 100 µM was found to be 39%. Further, the inhibition at 2 µM in experiment [3] is 36%.
As for `COC(=O)c1c(N)ncnc1Nc1ccc(OCc2ccccc2)c(Cl)c1` [Cpd 1, 4-amino-6-(4-benzyloxy-3-chloro-phenylamino)-pyrimidine-5-carboxylic acid methyl ester], the IC50 in experiment [1] stood at 1.9 µM; with HCT-116 colon carcinoma, 3 µM; in the experiment with A375 malignant melanoma, 1 µM. Also, the inhibition at 100 µM in experiment [2] stood at 92%.
`Nc1ncnc(Nc2ccc(OCc3ccccc3)c(Cl)c2)c1C(=O)NCCN1CCCCC1` [Cpd 7, 4-amino-6-(4-benzyloxy-3-chloro-phenylamino)-pyrimidine-5-carboxylic acid (2-piperidin-1-yl-ethyl)-amide]: the IC50 in experiment [1] was 34 µM; in the experiment with HCT-116 colon carcinoma, above 10 µM; in experiment [2], 10 µM; in the experiment on A375 malignant melanoma it was above 1 µM. This molecule also had an inhibition at 2 µM in experiment [3] of 42%.
On to `COc1ccc(CCNC(=O)c2c(N)ncnc2Nc2ccc(OCc3ccccc3)c(Cl)c2)cc1` [Cpd 9, 4-amino-6-(4-benzyloxy-3-chloro-phenylamino)-pyrimidine-5-carboxylic acid [2-(4-methoxy-phenyl)-ethyl]-amide], for which the IC50 (in experiment [1]; with HCT-116 colon carcinoma; in the experiment on A375 malignant melanoma) was above 100 µM in each case. The inhibition at 100 µM in experiment [2] came out at 4%. Besides, 2 µM produced 28% inhibition in experiment [3].
On to `Nc1ncnc(Nc2ccc(OCc3ccccc3)c(Cl)c2)c1C(=O)OCCN1CCOCC1` [Cpd 3, 4-amino-6-(4-benzyloxy-3-chloro-phenylamino)-pyrimidine-5-carboxylic acid 2-morpholin-4-yl-ethyl ester], for which the IC50 is above 10 µM in experiment [1], 1.38 µM in experiment [2] and 5.1 µM in the experiment with A375 malignant melanoma.
As for `Nc1ncnc(Nc2ccc(OCc3ccccc3)c(Cl)c2)c1C(=O)O` [Cpd 2, 4-amino-6-(4-benzyloxy-3-chloro-phenylamino)-pyrimidine-5-carboxylic acid], the IC50 in experiment [1] is above 10 µM; with HCT-116 colon carcinoma, above 10 µM; in experiment [2], 0.78 µM; in the experiment with A375 malignant melanoma it was above 10 µM.
`COc1ccc(NC(=O)c2c(N)ncnc2Nc2ccc(OCc3ccccc3)c(Cl)c2)cc1` [Cpd 11, 4-amino-6-(4-benzyloxy-3-chloro-phenylamino)-pyrimidine-5-carboxylic acid (4-methoxy-phenyl)-amide]: the IC50 (in experiment [1]; in the experiment with HCT-116 colon carcinoma; in the experiment on A375 malignant melanoma) was above 100 µM throughout. For the same molecule, the inhibition at 100 µM in experiment [2] amounted to 0%. The molecule also had an inhibition at 2 µM in experiment [3] of 36%.
